These results are taken from US8470820B2, “Nitrogen-containing heteroaryl derivatives” (Hoffman-La Roche Inc., priority 2010, dated 2013).

This test has as its target human PDE10A (Homo sapiens (Human), UniProt Q9Y233). In words: human PDE10A full length Scintillation Proximity Assay (SPA). In kind it is biochemical. The note with it: 50 nM cGMP and 50 nM [3H]-cGMP, 20 minutes at room temperature, read-out: PDE10A inhibition IC50. The method, then: The following test was carried out in order to determine the activity of the compounds of the present invention. PDE10 activity of the compounds of the present invention was determined using a Scintillation Proximity Assay (SPA)-based method similar to the one previously described (Fawcett, L. et al., Proc Natl Acad Sci USA (2000) 97(7):3702-3707).
The human PDE10A full length assay was performed in 96-well micro titer plates. The reaction mixture of 50 μl contained 20 mM HEPES pH=7.5/10 mM MgCl2/0.05 mg/ml BSA (Sigma cat. # A-7906), 50 nM cGMP (Sigma, cat. # G6129) and 50 nM [^3H]-cGMP (GE Healthcare, cat. # TRK392 S.A. 13.2Ci/mmol), 3.75 ng/well PDE10A enzyme (Enzo Life Science, Lausen, Switzerland cat # SE-534) with or without a specific test compound. A range of concentrations of the potential inhibitor was used to generate data for calculating the concentration of inhibitor resulting in 50% of the effect (e.g. IC50, the concentration of the competitor inhibiting PDE10A activity by 50%). Non-specific activity was tested without the enzyme. The reaction was initiated by the addition of the substrate solution (cGMP and [^3H]-cGMP) and allowed to progress for 20 minutes at room temperature. The reaction was terminated by adding 25 μA of YSi-SPA scintillation beads (GE Healthcare, cat. # RPNQ0150) in 18 mM zinc sulphate solution (stop reagent). After 1 h under shaking, the plate was centrifuged one minute at 170 g to allow beads to settle. Afterwards, radioactive counts were measured on a Perkin Elmer TopCount Scintillation plate reader.
A general note: Scintillation proximity formats need no separation of bound from free tracer.

What is called IC50 is the midpoint of a concentration-inhibition curve.

Where only a bound is given, the exact number is not on record here.

human PDE10A, sequence (Q9Y233 other isoform, or with tags, fused parts or gaps): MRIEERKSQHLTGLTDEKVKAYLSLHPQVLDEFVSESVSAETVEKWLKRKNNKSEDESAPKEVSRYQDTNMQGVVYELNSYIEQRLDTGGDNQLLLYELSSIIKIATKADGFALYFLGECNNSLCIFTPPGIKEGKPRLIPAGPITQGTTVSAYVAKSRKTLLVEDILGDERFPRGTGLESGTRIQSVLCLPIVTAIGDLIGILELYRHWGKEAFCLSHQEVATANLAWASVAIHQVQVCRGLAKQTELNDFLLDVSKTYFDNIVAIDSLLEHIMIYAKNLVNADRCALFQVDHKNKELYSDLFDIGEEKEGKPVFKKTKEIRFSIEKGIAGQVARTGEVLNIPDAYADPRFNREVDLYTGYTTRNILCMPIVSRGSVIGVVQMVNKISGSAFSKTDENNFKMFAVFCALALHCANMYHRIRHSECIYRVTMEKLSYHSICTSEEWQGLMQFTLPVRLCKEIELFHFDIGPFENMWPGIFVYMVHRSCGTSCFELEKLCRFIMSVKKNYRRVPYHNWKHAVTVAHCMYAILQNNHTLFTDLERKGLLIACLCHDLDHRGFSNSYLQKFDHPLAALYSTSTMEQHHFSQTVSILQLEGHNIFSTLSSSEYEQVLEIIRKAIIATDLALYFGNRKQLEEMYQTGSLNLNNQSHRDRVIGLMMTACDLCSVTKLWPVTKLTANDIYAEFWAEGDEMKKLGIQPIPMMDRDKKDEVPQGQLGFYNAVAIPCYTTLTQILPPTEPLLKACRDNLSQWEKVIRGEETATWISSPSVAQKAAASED

Take `O=C(Nc1cc(-c2ccccn2)nn1CCN1CCOCC1)c1nc(C2CC2)ccc1Nc1cncnc1` [Example 16, 6-Cyclopropyl-3-(pyrimidin-5-ylamino)-pyridine-2-carboxylic acid [2-(2-morpholin-4-yl-ethyl)-5-pyridin-2-yl-2H-pyrazol-3-yl]-amide]: the IC50 amounted to 2 nM. With `O=C(Nc1ccn(-c2ccc(F)cc2)n1)c1nc(C2CC2)ccc1Nc1cncnc1` [Example 6, 6-Cyclopropyl-3-(pyrimidin-5-ylamino)-pyridine-2-carboxylic acid [1-(4-fluoro-phenyl)-1H-pyrazol-3-yl]-amide] the figure was 23 nM; with `CN1CCC(n2nc(-c3ccccn3)cc2NC(=O)c2nc(C3CC3)ccc2Nc2cncnc2)CC1` [Example 43, 6-Cyclopropyl-3-(pyrimidin-5-ylamino)-pyridine-2-carboxylic acid [2-(1-methyl-piperidin-4-yl)-5-pyridin-2-yl-2H-pyrazol-3-yl]-amide], 4 nM. With `Cn1nc(-c2ccccn2)cc1NC(=O)c1nc(C2CC2)cnc1Nc1cncnc1` [Example 21, 6-Cyclopropyl-3-(pyrimidin-5-ylamino)-pyrazine-2-carboxylic acid (2-methyl-5-pyridin-2-yl-2H-pyrazol-3-yl)-amide] the figure was 4 nM; with `CCc1ccc(Nc2cncnc2)c(C(=O)Nc2cc(-c3ccccn3)nn2C)n1` [Example 19, 6-Ethyl-3-(pyrimidin-5-ylamino)-pyridine-2-carboxylic acid (2-methyl-5-pyridin-2-yl-2H-pyrazol-3-yl)-amide], 2 nM; with `COCc1ccc(Nc2cncnc2)c(C(=O)Nc2cc(-c3ccccn3)nn2CCO)n1` [Example 11, 6-Methoxymethyl-3-(pyrimidin-5-ylamino)-pyridine-2-carboxylic acid [2-(2-hydroxy-ethyl)-5-pyridin-2-yl-2H-pyrazol-3-yl]-amide], 5 nM.

Take `CCCn1nc(-c2ccccn2)cc1NC(=O)c1nc(C2CC2)ccc1Nc1cncnc1` [Example 23, 6-Cyclopropyl-3-(pyrimidin-5-ylamino)-pyridine-2-carboxylic acid (2-propyl-5-pyridin-2-yl-2H-pyrazol-3-yl)-amide]: the IC50 came out at 2 nM. With `CC(C)(C)n1nc(-c2ccccn2)cc1NC(=O)c1nc(C2CC2)ccc1Nc1cncnc1` [Example 18, 6-Cyclopropyl-3-(pyrimidin-5-ylamino)-pyridine-2-carboxylic acid (2-tert-butyl-5-pyridin-2-yl-2H-pyrazol-3-yl)-amide] the figure was 13 nM; with `Cc1ccc(Nc2cncnc2)c(C(=O)Nc2ccn(-c3ccccn3)n2)n1` [Example 4, 6-Methyl-3-(pyrimidin-5-ylamino)-pyridine-2-carboxylic acid (1-pyridin-2-yl-1H-pyrazol-3-yl)-amide], 368 nM. The same measure for `O=C(Nc1nnc(-c2cnccn2)s1)c1nc(C2CC2)ccc1Nc1cncnc1` [Example 49, 6-Cyclopropyl-3-(pyrimidin-5-ylamino)-pyridine-2-carboxylic acid (5-pyrazin-2-yl-[1,3,4]thiadiazol-2-yl)-amide]: 744 nM; for `O=C(Nc1cc(-c2cccc(Cl)n2)nn1CCO)c1nc(C2CC2)ccc1Nc1cncnc1` [Example 24, 6-Cyclopropyl-3-(pyrimidin-5-ylamino)-pyridine-2-carboxylic acid [5-(6-chloro-pyridin-2-yl)-2-(2-hydroxy-ethyl)-2H-pyrazol-3-yl]-amide]: 1 nM. Take `CC(C)n1nc(-c2ccccn2)cc1NC(=O)c1nc(C2CC2)ccc1Nc1cncnc1` [Example 27, 6-Cyclopropyl-3-(pyrimidin-5-ylamino)-pyridine-2-carboxylic acid (2-isopropyl-5-pyridin-2-yl-2H-pyrazol-3-yl)-amide]: the IC50 worked out at 3 nM. The same measure for `O=C(Nc1cc(-c2ccccn2)nn1C1CCCCC1)c1nc(C2CC2)ccc1Nc1cncnc1` [Example 14, 6-Cyclopropyl-3-(pyrimidin-5-ylamino)-pyridine-2-carboxylic acid (2-cyclohexyl-5-pyridin-2-yl-2H-pyrazol-3-yl)-amide]: 1 nM; for `Cn1nc(-c2ccccn2)cc1NC(=O)c1nc(C(C)(C)C)ncc1Nc1cncnc1` [Example 55, 2-tert-Butyl-5-(pyrimidin-5-ylamino)-pyrimidine-4-carboxylic acid (2-methyl-5-pyridin-2-yl-2H-pyrazol-3-yl)-amide]: 4 nM. The same measure for `CC(C)Cn1nc(-c2ccccn2)cc1NC(=O)c1nc(C2CC2)ccc1Nc1cncnc1` [Example 28, 6-Cyclopropyl-3-(pyrimidin-5-ylamino)-pyridine-2-carboxylic acid (2-isobutyl-5-pyridin-2-yl-2H-pyrazol-3-yl)-amide]: 1 nM; for `O=C(Nc1cnc(-c2ccccn2)s1)c1nc(C2CC2)ccc1Nc1cncnc1` [Example 62, 6-Cyclopropyl-3-(pyrimidin-5-ylamino)-pyridine-2-carboxylic acid (2-pyridin-2-yl-thiazol-5-yl)-amide]: 2 nM.

For `O=C(Nc1cc(-c2ccc(F)cc2)no1)c1nc(C2CC2)ccc1Nc1cncnc1` [Example 58, 6-Cyclopropyl-3-(pyrimidin-5-ylamino)-pyridine-2-carboxylic acid [3-(4-fluoro-phenyl)-isoxazol-5-yl]-amide], the IC50 was 2450 nM. `O=C(Nc1cc(-c2ccccn2)nn1CCO)c1nc(C2CC2)ccc1Nc1cncnc1` [Example 10, 6-Cyclopropyl-3-(pyrimidin-5-ylamino)-pyridine-2-carboxylic acid [2-(2-hydroxy-ethyl)-5-pyridin-2-yl-2H-pyrazol-3-yl]-amide]: the IC50 is 2 nM. With `CCn1nc(-c2ccccn2)cc1NC(=O)c1nc(C2CC2)ccc1Nc1cncnc1` [Example 30, 6-Cyclopropyl-3-(pyrimidin-5-ylamino)-pyridine-2-carboxylic acid (2-ethyl-5-pyridin-2-yl-2H-pyrazol-3-yl)-amide] the figure was 5 nM.

Turning to `O=C(Nc1cc(-c2ccc(Br)cc2)no1)c1nc(C2CC2)ccc1Nc1cncnc1` [Example 57, 6-Cyclopropyl-3-(pyrimidin-5-ylamino)-pyridine-2-carboxylic acid [3-(4-bromo-phenyl)-isoxazol-5-yl]-amide], the IC50 came out at 781 nM. The same measure for `O=C(Nc1cc(-c2ccccc2)no1)c1nc(C2CC2)ccc1Nc1cncnc1` [Example 46, 6-Cyclopropyl-3-(pyrimidin-5-ylamino)-pyridine-2-carboxylic acid (3-phenyl-isoxazol-5-yl)-amide]: 612 nM. With `O=C(Nc1cc(-c2ccc3ccccc3n2)nn1CCO)c1nc(C2CC2)ccc1Nc1cncnc1` [Example 25, 6-Cyclopropyl-3-(pyrimidin-5-ylamino)-pyridine-2-carboxylic acid [2-(2-hydroxy-ethyl)-5-quinolin-2-yl-2H-pyrazol-3-yl]-amide] the figure was < 1 nM; with `O=C(Nc1cc(-c2ccc(Cl)cn2)nn1CCO)c1nc(C2CC2)ccc1Nc1cncnc1` [Example 26, 6-Cyclopropyl-3-(pyrimidin-5-ylamino)-pyridine-2-carboxylic acid [5-(5-chloro-pyridin-2-yl)-2-(2-hydroxy-ethyl)-2H-pyrazol-3-yl]-amide], 2 nM. On to `COCc1ccc(Nc2cncnc2)c(C(=O)Nc2cc(-c3ccccn3)nn2C)n1` [Example 59, 6-Methoxymethyl-3-(pyrimidin-5-ylamino)-pyridine-2-carboxylic acid (2-methyl-5-pyridin-2-yl-2H-pyrazol-3-yl)-amide], for which the IC50 was 7 nM. With `O=C(Nc1cc(-c2ccccn2)nn1CC1CCCCC1)c1nc(C2CC2)ccc1Nc1cncnc1` [Example 32, 6-Cyclopropyl-3-(pyrimidin-5-ylamino)-pyridine-2-carboxylic acid (2-cyclohexylmethyl-5-pyridin-2-yl-2H-pyrazol-3-yl)-amide], the IC50 amounted to 1 nM. With `O=C(Nc1cc(-c2ccccn2)nn1CCc1ccccc1)c1nc(C2CC2)ccc1Nc1cncnc1` [Example 17, 6-Cyclopropyl-3-(pyrimidin-5-ylamino)-pyridine-2-carboxylic acid (2-phenethyl-5-pyridin-2-yl-2H-pyrazol-3-yl)-amide] the figure was 5 nM; with `Cn1nc(-c2ccccn2)cc1NC(=O)c1nc(C2CCCCC2)ncc1Nc1cncnc1` [Example 60, 2-Cyclohexyl-5-(pyrimidin-5-ylamino)-pyrimidine-4-carboxylic acid (2-methyl-5-pyridin-2-yl-2H-pyrazol-3-yl)-amide], 6 nM.

Take `O=C(Nc1nnc(-c2ccccn2)o1)c1nc(C2CC2)ccc1Nc1cncnc1` [Example 64, 6-Cyclopropyl-3-(pyrimidin-5-ylamino)-pyridine-2-carboxylic acid (5-pyridin-2-yl-[1,3,4]oxadiazol-2-yl)-amide]: the IC50 came to 2040 nM. With `O=C(Nc1ccc(-c2ccccn2)s1)c1nc(C2CC2)ccc1Nc1cncnc1` [Example 50, 6-Cyclopropyl-3-(pyrimidin-5-ylamino)-pyridine-2-carboxylic acid (5-pyridin-2-yl-thiophen-2-yl)-amide] the figure was 1 nM.
